Measured values reported in patent US20110236921A1, “CELL SYSTEM” (GE HEALTHCARE UK LIMITED, priority 2010, published 2011).

Columns and labels:
WM115-Glu cells = assay: live-cell validation, cell viability (cell number) by nuclear-channel imaging, glycolytic cell line; assay type: cell-based, human; conditions: WM115-Glu (glucose-rich medium), 384-well live-cell plate, tested at 10.0 μM; live cells visible over full concentration range
Description: (§1) Live cells are clearly visible in the full concentration range for WM115-Glu cells, but not for WM115-Gal cells (low cell density in 0.1 μM→10.0 μM antimycin A). FIG. 4b is a graphical representation of the same data.
(§2) Antimycin A acts on respiration […] of the electron transport chain. Glucose-deprived cells (WM115-Gal) are dependent on mitochondrial respiration for ATP, and are therefore sensitive to antimycin A. In contrast, the WM115-Glu cells grown in glucose-rich media are reliant on glycolysis for ATP generation and as predicted, these cells appear resistant to antimycin A.

WM115-Gal cells = assay: live-cell validation, cell viability (cell number) by nuclear-channel imaging, respiring cell line; assay type: cell-based, human; conditions: WM115-Gal (glucose-free galactose medium), 384-well live-cell plate; as low as 0.1 μM; low cell density at 0.1 μM→10.0 μM
Description: as §1, §2

antimycin A
sensitivity of cells to drug (live cells visible / cell number) (WM115-Glu cells): resistant
sensitivity of cells to drug (live cells visible / cell number) (WM115-Gal cells): susceptible
